Measured values published in paper PMC10325066, “The FMRF-NH2 gated sodium channel of Biomphalaria glabrata: Localization and expression following infection by Schistosoma mansoni” (PLOS Neglected Tropical Diseases, 2023).
“Also recorded” adds a separate entry of the source.

Tests used:
[1] = tested on: Biomphalaria glabrata FMRF-NH2 gated sodium channel (Bgl-FaNaC); test: Two-electrode voltage clamp of Bgl-FaNaC heterologously expressed in Xenopus oocytes; format: cell-based; settings: peptide 1 mM (given for FLRF-NH2, pQFYRI-NH2, FIRF-NH2; not given for GDPFLRF-NH2); oocyte voltage clamp -60 mV
Description: The cDNA encoding the Bgl-FaNaC sequence was codon-optimized for Xenopus laevis and synthesized by Integrated DNA Technologies (IDT, Coralville IA). The Flag-tag protein affinity sequence (DYKDDDDK; Sigma-Aldrich) was added to the N-terminal to enable confirmation of expression. The cDNA was subcloned into the Xenopus expression vector pGEM HE as described previously. The Bgl-FaNaC full-length RNA was transcribed in vitro, capped and polyadenylated using the T7 mScript Standard mRNA Production System (CellScript, Madison WI).
Oocytes were obtained from dissected ovaries of adult Xenopus laevis specimens (Xenopus Express, Brooksville FL). They were dispersed with type II collagenase and manually defolliculated. RNA injections were performed in pre-selected oocytes from stages V and VI. Oocytes were injected with 38.6 nL of Bgl-FaNaC encoding RNA at a concentration of 20 ng/uL using a Nanoliter 2000 microinjector (World Precision Instruments, Sarasota FL).
Injected oocytes were placed at the bottom of a plastic recording chamber (3 ml volume) lined with a nylon mesh and continuously perfused with ND96 (96 mM NaCl, 2 mM KCl, 1.8 mM CaCl2, 1 mM MgCl2, 5 mM HEPES, pH 7.6; see detailed methods in [38]). An OC725B oocyte clamp (Warner Instruments LLC., Hamden CT) was used to clamp the membrane potential at -60 mV with independent microelectrodes for recording (0.1 M potassium chloride) and passing current (3 M potassium chloride). Data were acquired on a Digidata 1200 interface with Clampex (V.6) and analyzed with AxoScope 10.7 (Axon Instruments, Union City CA). All experiments were carried out at room temperature (20–25°C).
Synthetic FMRF-NH2, FLRF-NH2, FIRF-NH2, pQFYRI-NH2, and GDPFLRF-NH2 peptides (>90% purity) were purchased from GL Biochem (Shanghai, China). All peptides were dissolved in ND96 in a stock of 1 mM. Peptide stocks were frozen at -20°C and serial dilutions were freshly prepared before each experiment. Peptides were applied manually using a pipettor (1 mL, upstream from the oocyte).

[2] = tested on: Planorbella FaNaC; parameters: method as in PMID 10878095; settings: cited from earlier work
[3] = tested on: Cornu aspersum FaNaC; parameters: method as in PMID 7501021; settings: cited from earlier work

| Compound | Current response to related peptide application [1] | other results |
| --- | --- | --- |
| FIRF-NH2 [Synthetic peptide encoded on the tetrapeptide precursor Bgl-FaRP1] | No currents | – |
| pQFYRI-NH2 [Synthetic peptide encoded on the tetrapeptide precursor Bgl-FaRP1] | No currents | – |
| N=C(N)NC(=O)c1nc(Cl)c(N)nc1N [amiloride] | – | Effect of amiloride on FaNaC responses to FMRF-NH2 [2]: potentiates responses to FMRF-NH2; Effect of amiloride on FaNaC ([3]; FaNaC of Cornu aspersa): blocks |
| FLRF-NH2 [Synthetic related peptide encoded on the Biomphalaria FMRF-NH2 precursor] | No currents; also recorded: No response was detected | Response of FaNaC to peptide [2]: negligible; EC50 ([3]; C. aspersum FaNaC, read-out: EC50 for FaNaC activation): 11 µM |
| GDPFLRF-NH2 [Synthetic heptapeptide, product of the heptapeptide precursor Bgl-FaRP2] | No currents; also recorded: No response was elicited | – |
